Laboratory results taken from ChEMBL document CHEMBL6071177, “Medium-Ring Keto Bislactams with Antischistosomal Activity” (J Med Chem, 2024).
≈ marks a conversion by molar mass, not a printed value.

How the values were obtained:
[1] = Cytotoxicity against rat L6 cells; assay type: toxicity, cell-based
Schistosoma mansoni [2] = experiment: Anti-schistosomal activity against newly transformed Schistosoma mansoni assessed as parasite viability at 10 uM measured after 3 days relative to control; assay type: functional; conditions: time 3 day
[3] = Solubility of compound in 0.01 M HCl at pH 2.0 by nephelometry; assay type: physicochemical
[4] = Lipophilicity, logD of compound at pH 7.4 by HPLC analysis; assay type: physicochemical; conditions: buffer
Schistosoma mansoni [5] = experiment: Anti-schistosomal activity against adult Schistosoma mansoni assessed as parasite viability at 10 uM measured after 3 days relative to control; assay type: functional; conditions: time 3 day
[6] = Solubility of compound in phosphate buffer at pH 6.5 by nephelometry; assay type: physicochemical
[7] = Intrinsic clearance in mouse liver microsomes
[8] = Intrinsic clearance in human liver microsomes
[9] = Cmax in Swiss mouse at 100 mg/kg, po measured upto 48 hrs by LC-MS analysis; assay type: ADME, organism-based; conditions: in vivo
Schistosoma mansoni [10] = experiment: Ex vivo anti-schistosomal activity against adult Schistosoma mansoni assessed as inhibition of parasite viability measured after 3 days; assay type: functional, organism-based; conditions: 72 h
[11] = AUC (0 to 24 hrs) in Swiss mouse at 100 mg/kg, po measured upto 48 hrs by LC-MS analysis; assay type: ADME, organism-based; conditions: in vivo
[12] = Half life in Swiss mouse at 100 mg/kg, po measured upto 48 hrs by LC-MS analysis; assay type: ADME, organism-based; conditions: in vivo

| SMILES | solubility kinetic [3] [µM] | logD [4] | solubility kinetic [6] [µM] | CLH [7] [µL/min/mg] | CLH [8] [µL/min/mg] | Cmax [9] [ng/mL] | IC50 (Schistosoma mansoni [10]) [µM] | AUC [11] [ng·h/mL] | t1/2 [12] [h] | IC50 [1] [µM] | Activity (Schistosoma mansoni [2]) [%] | Activity (Schistosoma mansoni [5]) [%] |
| --- | --- | --- | --- | --- | --- | --- | --- | --- | --- | --- | --- | --- |
| CC12C(=O)Nc3ccccc3C(=O)CCN1C(=O)c1ccccc12 (configuration not stated) | 160 (≈ 51.3 µg/mL) | 1.7 | 160 (≈ 51.3 µg/mL) | 136 | 34 | – | – | – | – | > 300 | 25 | 35 |
| O=C1CCN2C(C(=O)Nc3ccccc31)c1ccccc1S2(=O)=O (configuration not stated) | 80 (≈ 27.4 µg/mL) | 1.7 | 160 (≈ 54.8 µg/mL) | – | – | – | – | – | – | 130 | 27 | 44 |
| O=C1CCn2c(nc3ccccc3c2=O)C(=O)Nc2ccccc21 | > 320 | 1.8 | > 320 | 38.2 | 21.7 | – | – | – | – | 52 | 31 | 20 |
| CO/N=C1/CCN2C(=O)c3ccccc3C2C(=O)Nc2ccccc21 (configuration not stated) | > 320 | 1.6 | > 320 | 80.3 | 13.2 | – | – | – | – | > 300 | 33 | 41 |
| O=C1c2ccccc2C23C(=O)Nc4ccccc4C2(O)CCN13 (configuration not stated) | 40 (≈ 12.3 µg/mL) | 0.9 | 40 (≈ 12.3 µg/mL) | < 7 | < 7 | – | – | – | – | > 330 | 18 | 48 |
| O=C1CCN2C(=O)[C@H]3CCCC[C@H]3C2C(=O)Nc2ccccc21 (some centres not stated) | > 320 | 1.4 | > 320 | 43.7 | 22.3 | – | – | – | – | 220 | 50 | 25 |
| O=C1C[C@@H](CO)N2C(=O)c3ccccc3C2C(=O)Nc2ccccc21 (some centres not stated) | 80 (≈ 26.9 µg/mL) | 0.8 | 80 (≈ 26.9 µg/mL) | 61.6 | 19.6 | – | – | – | – | 230 | 38 | 47 |
| O=C1Nc2ccccc2C2(O)CCN3C12c1ccccc1S3(=O)=O (configuration not stated) | 80 (≈ 27.4 µg/mL) | 1 | > 160 | 11.6 | 4.6 | – | – | – | – | > 290 | 47 | 61 |
| COC1CCN2C(=O)c3ccccc3C2C(=O)Nc2ccccc21 (configuration not stated) | 80 (≈ 25.8 µg/mL) | 1.4 | 160 (≈ 51.6 µg/mL) | 90.5 | 23.2 | – | – | – | – | > 310 | 25 | 31 |
| O=c1c2c([nH]c3ccccc13)C1c3ccccc3S(=O)(=O)N1C2 (configuration not stated) | 40 (≈ 13 µg/mL) | 2 | 40 (≈ 13 µg/mL) | 45.8 | 11 | – | – | – | – | 200 | 22 | 47 |
| COC(=O)[C@@H]1CC(=O)c2ccccc2NC(=O)C2c3ccccc3C(=O)N21 (some centres not stated) | 80 (≈ 29.1 µg/mL) | 1.7 | 160 (≈ 58.3 µg/mL) | 102 | 55.5 | – | – | – | – | > 270 | 50 | 27 |
| CCOC(=O)c1ccc2c(c1)C(=O)CCN1C(=O)c3ccccc3C1C(=O)N2 (configuration not stated) | 40 (≈ 15.1 µg/mL) | 2 | 40 (≈ 15.1 µg/mL) | 118 | 55.6 | – | – | – | – | > 260 | 21 | 38 |
| CN1C(=O)C2c3ccccc3C(=O)N2CCC(=O)c2ccccc21 (configuration not stated) | > 320 | 1.9 | > 320 | 174 | 71 | – | – | – | – | > 300 | 23 | 39 |
| O=C1Nc2ccccc2CCCN2C(=O)c3ccccc3C12 (configuration not stated) | 160 (≈ 46.8 µg/mL) | 1.5 | > 320 | 100 | 35.7 | – | – | – | – | > 340 | 48 | 31 |
| O=C(C1CCCCC1)N1CC(=O)N2CCc3ccccc3C2C1 (configuration not stated) [PRAZIQUANTEL] | > 320 | 3 | > 320 | – | – | – | – | – | – | – | 78 | 100 |

Continued, in another order:

| solubility kinetic [3] [µM] | logD [4] | solubility kinetic [6] [µM] | CLH [7] [µL/min/mg] | CLH [8] [µL/min/mg] | Cmax [9] [ng/mL] | IC50 (Schistosoma mansoni [10]) [µM] | AUC [11] [ng·h/mL] | t1/2 [12] [h] | SMILES | IC50 [1] [µM] | Activity (Schistosoma mansoni [2]) [%] | Activity (Schistosoma mansoni [5]) [%] |
| --- | --- | --- | --- | --- | --- | --- | --- | --- | --- | --- | --- | --- |
| 160 (≈ 51.9 µg/mL) | 1.4 | 160 (≈ 51.9 µg/mL) | – | – | – | – | – | – | O=C1CCN2C(=O)c3ccccc3C2C(=O)Nc2cc(F)ccc21 (configuration not stated) | > 300 | 15 | 39 |
| 160 (≈ 51.9 µg/mL) | 1.4 | > 320 | 258 | 45.4 | – | – | – | – | O=C1CCN2C(=O)c3ccccc3C2C(=O)Nc2ccc(F)cc21 (configuration not stated) | > 310 | 30 | 40 |
| 160 (≈ 41.3 µg/mL) | < 0 | > 320 | 35 | 17 | – | – | – | – | O=C1CCN2C(=O)CCC2C(=O)Nc2ccccc21 (configuration not stated) | > 390 | 13 | 31 |
| 160 (≈ 54.5 µg/mL) | 1.8 | > 320 | 413 | 101 | – | – | – | – | O=C1CCN2C(=O)c3ccccc3C2C(=O)Nc2ccc(Cl)cc21 (configuration not stated) | 220 | 38 | 40 |
| > 320 | 2.3 | > 320 | 212 | 97.4 | – | – | – | – | O=C1CCN2C(=O)c3cc4ccccc4cc3C2C(=O)Nc2ccccc21 (configuration not stated) | 98 | 48 | 40 |
| 80 (≈ 30 µg/mL) | 2.4 | 160 (≈ 60 µg/mL) | – | – | – | – | – | – | O=C1CCN2C(=O)c3cc(Cl)c(Cl)cc3C2C(=O)Nc2ccccc21 (configuration not stated) | 190 | 31 | 40 |
| 160 (≈ 54.8 µg/mL) | 1.7 | > 320 | 35.6 | 21.5 | – | – | – | – | O=C1CCN2C(=O)c3ccccc3C2C(=O)Nc2cc(F)cc(F)c21 (configuration not stated) | 200 | 23 | 40 |
| > 320 | 1.5 | > 320 | 280 | 57.1 | – | – | – | – | COc1ccc2c(c1)C(=O)CCN1C(=O)c3ccccc3C1C(=O)N2 (configuration not stated) | 130 | 50 | 42 |
| 160 (≈ 60.5 µg/mL) | 2 | 160 (≈ 60.5 µg/mL) | – | – | – | – | – | – | O=C1CCN2C(=O)c3c(F)c(F)c(F)c(F)c3C2C(=O)Nc2ccccc21 (configuration not stated) | 98 | 36 | 30 |
| 160 (≈ 49 µg/mL) | 1.2 | > 320 | 84 | 27 | 189 | 2.5 | 810 | 4.4 | O=C1CCN2C(=O)c3ccccc3C2C(=O)Nc2ccccc21 (configuration not stated) | > 330 | 51 | 61 |
| > 320 | 1.7 | 160 (≈ 54.8 µg/mL) | – | – | – | – | – | – | O=C1CCN2C(=O)c3cc(F)c(F)cc3C2C(=O)Nc2ccccc21 (configuration not stated) | > 290 | 37 | 34 |
| 160 (≈ 58.6 µg/mL) | 1.2 | > 320 | 37.4 | 20.7 | – | – | – | – | COc1cc2c(cc1OC)C1C(=O)Nc3ccccc3C(=O)CCN1C2=O (configuration not stated) | 150 | 23 | 38 |
